The numbers were not newly measured in US6472362B1, “Detergent compositions in tablet form” (Unilever Home & Personal Care USA division of Conopco, Inc., priority 1997, dated 2002), which cites them from elsewhere.

Where two headings read alike, the source gives them in different places.

Setting [1] is: other common materials, at 200° C. (so in the source).

`O=BO[O-].[Na+]` [Sodium perborate anhydrous]: under setting [1], the “Water Solubility (g/100 g)” value is 3.7 g/100 g.

Consider `O=P(O)(O)OP(=O)(O)OP(=O)(O)O` [Sodium tripolyphosphate anhydrous], for which the “Water Solubility (g/100 g)” value under setting [1] is 15 g/100 g. As for `NC(N)=O` [Urea], for the setting “at 20° C.”, the solubility in water result is “exceeding 100 gms per 100 ml water”. Where the note is “highly water-soluble materials, saturated solution in 100 grams of water at 20° C.”, the “Water Solubility (g/100 g)” value is listed as >100 g/100 g.
